What all share (format): cell-based
One assay deals with T1, α1β1 (Homo sapiens, UniProt P05556+P56199).
T1 construct: Marcinkiewicz (Temple University, Philadelphia, Pa.); host or cells: K562
The assay can be described thus: Cell adhesion assay to assess specificity: α1-transfected K562 cells on collagen IV. To be noted: read-out: % inhibition at 3 μM, α1β1. As to the method:
(§1) The ligands (3 μg/ml of collagen IV for […] or 3 μg/ml of collagen I for α2β1) for the test designed to assess the specificity of representative embodiments of the instant compounds for the α2β1 integrin were immobilized on 96-well flat microtiter plates (100 μl for each well) in PBS buffer solution overnight at 4° C. In the case of VCAM (3 μg/ml, for α4β1) and fibronectin (10 μg/ml, for α5β1), 20 mM acetic acid was used instead of PBS buffer solution. As those skilled in the art will recognize, VCAM is a known endothelial ligand for α4β1/VLA-4, and fibronectin is a known ligand for […]. In the case of α1β1 and α2β1, blocking was performed with 1% BSA in HBSS buffer solution containing Mg^2+ (but without Ca^2+) for 1 hour. In the case of α4β1 and α5β1, 1% BSA in HyQ HBSS buffer solution containing Ca^2+ and Mg^2+ was used. […] After centrifugation and washing with buffer solution containing 1% BSA, cells were re-suspended in same buffer solution (1×10^6 cells/ml) and incubated in the presence of a different concentration of inhibitors at room temperature for 15 minutes. Cells were added to the wells (100 μl/well) and incubated at 37° C. for 30 minutes. Unbound cells were washed out and bound cells were lysed by the addition of 0.5% Triton X-100.
(§2) The K562 cells expressing α5β1 integrin, Jurkat cells expressing α4β1, and K562 cells transfected with α1 and α2 integrins were provided by Dr. C. Marcinkiewicz (Temple University, Philadelphia, Pa.).
(§3) Plates were read using a Cytofluor 2350 fluorescence plate reader (Millipore, Bedford, Mass.) with a 485 nm (excitation) and 530 nm (emission).

The target in a further assay is T2, α2β1 (Homo sapiens, UniProt P05556+P17301).
T2 construct: Marcinkiewicz (Temple University, Philadelphia, Pa.); host or cells: K562
T2 sequence (P17301 30-1181): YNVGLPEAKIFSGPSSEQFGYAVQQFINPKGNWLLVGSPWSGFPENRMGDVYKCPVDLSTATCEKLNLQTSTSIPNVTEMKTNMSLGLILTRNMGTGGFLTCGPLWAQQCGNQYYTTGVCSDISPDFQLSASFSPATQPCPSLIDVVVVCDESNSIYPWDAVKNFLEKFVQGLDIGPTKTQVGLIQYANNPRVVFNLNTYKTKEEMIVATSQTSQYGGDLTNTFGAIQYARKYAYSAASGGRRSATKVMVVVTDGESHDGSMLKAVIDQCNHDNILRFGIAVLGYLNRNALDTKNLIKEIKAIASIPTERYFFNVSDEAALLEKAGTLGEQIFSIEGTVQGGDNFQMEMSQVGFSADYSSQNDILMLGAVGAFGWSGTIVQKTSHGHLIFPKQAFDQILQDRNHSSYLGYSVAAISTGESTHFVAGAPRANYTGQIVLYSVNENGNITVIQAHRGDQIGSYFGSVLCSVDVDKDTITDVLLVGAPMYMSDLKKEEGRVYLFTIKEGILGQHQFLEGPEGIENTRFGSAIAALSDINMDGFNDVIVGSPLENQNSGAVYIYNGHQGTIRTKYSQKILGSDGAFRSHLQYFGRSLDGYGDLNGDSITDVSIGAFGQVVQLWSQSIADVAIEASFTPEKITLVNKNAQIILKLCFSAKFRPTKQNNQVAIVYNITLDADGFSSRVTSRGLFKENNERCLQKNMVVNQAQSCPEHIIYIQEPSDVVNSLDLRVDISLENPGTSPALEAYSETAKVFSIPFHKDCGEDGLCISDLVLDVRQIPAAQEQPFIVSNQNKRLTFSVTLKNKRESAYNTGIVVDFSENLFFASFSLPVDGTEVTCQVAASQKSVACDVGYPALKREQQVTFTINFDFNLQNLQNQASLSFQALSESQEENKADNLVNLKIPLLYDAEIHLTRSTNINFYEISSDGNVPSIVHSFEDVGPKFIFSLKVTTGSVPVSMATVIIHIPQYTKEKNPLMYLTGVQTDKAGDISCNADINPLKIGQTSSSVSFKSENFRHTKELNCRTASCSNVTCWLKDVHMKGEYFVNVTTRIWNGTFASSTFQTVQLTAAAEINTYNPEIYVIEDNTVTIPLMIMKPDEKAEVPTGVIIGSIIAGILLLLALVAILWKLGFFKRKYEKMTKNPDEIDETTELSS
T2 sequence (P05556 21-798): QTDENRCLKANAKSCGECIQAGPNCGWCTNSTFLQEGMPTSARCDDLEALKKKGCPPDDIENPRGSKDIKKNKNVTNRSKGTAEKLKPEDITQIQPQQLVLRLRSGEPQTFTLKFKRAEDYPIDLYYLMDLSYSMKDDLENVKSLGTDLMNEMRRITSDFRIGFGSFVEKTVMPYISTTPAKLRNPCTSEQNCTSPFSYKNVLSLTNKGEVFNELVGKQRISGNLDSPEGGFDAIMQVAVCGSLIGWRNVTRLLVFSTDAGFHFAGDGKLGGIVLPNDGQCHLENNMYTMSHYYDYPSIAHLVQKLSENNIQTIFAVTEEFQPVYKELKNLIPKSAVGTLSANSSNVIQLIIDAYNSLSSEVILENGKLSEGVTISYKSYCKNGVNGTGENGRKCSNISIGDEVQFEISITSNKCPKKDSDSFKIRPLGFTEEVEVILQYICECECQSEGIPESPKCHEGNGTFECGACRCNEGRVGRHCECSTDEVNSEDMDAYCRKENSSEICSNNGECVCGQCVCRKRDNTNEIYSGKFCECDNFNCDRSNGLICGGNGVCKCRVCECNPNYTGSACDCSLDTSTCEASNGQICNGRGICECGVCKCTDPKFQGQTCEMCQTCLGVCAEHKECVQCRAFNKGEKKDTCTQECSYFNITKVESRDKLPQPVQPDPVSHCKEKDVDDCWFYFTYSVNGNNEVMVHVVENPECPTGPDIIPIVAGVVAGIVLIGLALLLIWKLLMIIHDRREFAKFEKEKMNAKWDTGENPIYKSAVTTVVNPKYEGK
The assay can be described thus: Cell adhesion assay to assess specificity: α2-transfected K562 cells on collagen I. As to the method:
as §1, §2, §3

The next assay has as its target T3, α2β1 integrin (Homo sapiens, UniProt P05556+P17301).
T3 construct: endogenous in cells; host or cells: gel-filtered human platelets of a single donor
The assay can be described thus: Platelet adhesion assay (human platelet adhesion to type I collagen). The method, then:
The inhibitory strength of the compounds of the present disclosure was analyzed as against platelet adhesion to type I collagen. Ninety-six well flat bottom microtiter plates (Immulon 2, Dynatech Laboratories, Chantilly, Va.) were coated with collagen, purified human fibrinogen, or bovine serum albumin, each dissolved in 50 mM NaHCO3 buffer, pH 8.0, containing 150 mM NaCl as previously described. See Bennett J S, Chan C, Vilaire G, Mousa S A, DeGrado W F. Agonist-Activated αvβ3 on Platelets and Lymphocytes Binds to the Matrix Protein Osteopontin. J Biol Chem. 272, 8137-814) (1997). Unoccupied protein binding sites on the wells were blocked with 5 mg/ml bovine serum albumin dissolved in the same buffer. Human platelets were isolated from blood anticoagulated with 0.1 volume 3.8% sodium citrate by gel-filtration using a 4 mM HEPES buffer, pH 7.4, containing 135 mM NaCl, 2.7 mM KCl, 5.6 mM glucose, 3.3 mM NaH2PO4, 0.35 mg/ml bovine serum albumin and various concentrations of CaCl2 or MgCl2 according to the experiment. One hundred μl aliquots of the gel-filtered platelet suspension containing 1-2×10^8 platelets were added to the protein-coated wells in the absence or presence of a platelet agonist. Following an incubation for 30 min at 37° C. without agitation, the plates were washed 4 times with the Tris-buffered NaCl, containing 2 mM MgCl2, pH 7.4, and the number of adherent platelets measured using the colorimetric assay reported by Bellavite P, Andrioli G, Guzzo P, et al. A colorimetric method for the measurement of platelet adhesion in microtiter plates. Anal Biochem. 216, 444-450 (1994). Briefly, 150 μl of a 0.1 M citrate buffer, pH 5.4, containing 5 mM p-nitrophenyl phosphate and 0.1% Triton X-100 was added to the wells after washing. After an incubation for 60 min at room temperature in the absence of ambient light, color was developed by the addition of 100 μl of 2N NaOH and, using EL800 Universal Microplate Reader (Bio-Tek Instruments, Inc., Winooski, Vt.), read in microtiter plate reader at 405 nm.
The potencies of the compounds of the present disclosure were determined by testing the ability of a range of concentrations of each compound to inhibit human platelet adhesion to soluble collagen under static conditions. Owing to the fact that soluble collagen is a specific ligand for α2β1 integrin, this is an accepted method of assessing α2β1 inhibition on platelets.
IC50 values were determined by using the platelets of a single donor. In cases where multiple assays were performed, the reported results reflect the average IC50 value derived from the separate assays.

The target in a further assay is T4, α4β1 (Homo sapiens, UniProt P05556+P13612).
T4 construct: Jurkat cells expressing α4β1; Marcinkiewicz (Temple University, Philadelphia, Pa.); host or cells: Jurkat
T4 sequence (P13612 34-1032): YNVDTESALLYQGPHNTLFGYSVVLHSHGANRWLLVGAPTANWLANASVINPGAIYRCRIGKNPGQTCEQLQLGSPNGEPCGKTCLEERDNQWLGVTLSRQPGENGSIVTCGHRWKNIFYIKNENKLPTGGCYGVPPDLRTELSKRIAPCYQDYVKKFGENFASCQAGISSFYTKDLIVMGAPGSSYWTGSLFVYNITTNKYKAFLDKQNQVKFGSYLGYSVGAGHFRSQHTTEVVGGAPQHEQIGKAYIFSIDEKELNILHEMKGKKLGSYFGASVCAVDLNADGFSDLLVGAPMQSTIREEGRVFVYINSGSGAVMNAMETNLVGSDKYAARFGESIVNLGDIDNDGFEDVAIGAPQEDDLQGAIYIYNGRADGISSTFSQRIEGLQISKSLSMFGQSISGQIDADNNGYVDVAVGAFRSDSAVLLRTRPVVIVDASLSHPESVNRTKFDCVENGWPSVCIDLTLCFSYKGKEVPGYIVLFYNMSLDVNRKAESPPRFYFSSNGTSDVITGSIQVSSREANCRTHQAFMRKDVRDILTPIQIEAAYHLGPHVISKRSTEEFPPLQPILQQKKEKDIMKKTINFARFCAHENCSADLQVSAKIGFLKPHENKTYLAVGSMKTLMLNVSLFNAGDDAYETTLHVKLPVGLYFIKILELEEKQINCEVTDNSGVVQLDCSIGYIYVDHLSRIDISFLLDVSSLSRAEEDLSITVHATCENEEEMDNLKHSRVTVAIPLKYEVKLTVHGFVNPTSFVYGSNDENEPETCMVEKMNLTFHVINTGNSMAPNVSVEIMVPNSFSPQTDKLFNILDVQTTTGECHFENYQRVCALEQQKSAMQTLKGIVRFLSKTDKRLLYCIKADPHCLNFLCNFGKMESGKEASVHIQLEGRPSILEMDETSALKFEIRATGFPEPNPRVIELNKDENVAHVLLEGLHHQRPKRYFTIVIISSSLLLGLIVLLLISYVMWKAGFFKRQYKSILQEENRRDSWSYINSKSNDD
T4 sequence (P05556 21-798): as the sequence (P05556 21-798) above
Kind of assay: Cell adhesion assay to assess specificity: Jurkat cells on VCAM. As to the method:
as §1, §2, §3

The mark [1] stands for this setting: human platelet adhesion to type I (soluble, monomeric) collagen, static conditions, single donor, read-out: IC50.
The mark [2] stands for this setting: platelets on collagen I, read-out: IC50 (nM), α2β1, Platelet, Collagen I.

SMILES strings stand for the structures. Where two headings read alike, the source gives them in different places.

T1 sequence (P56199 29-1179): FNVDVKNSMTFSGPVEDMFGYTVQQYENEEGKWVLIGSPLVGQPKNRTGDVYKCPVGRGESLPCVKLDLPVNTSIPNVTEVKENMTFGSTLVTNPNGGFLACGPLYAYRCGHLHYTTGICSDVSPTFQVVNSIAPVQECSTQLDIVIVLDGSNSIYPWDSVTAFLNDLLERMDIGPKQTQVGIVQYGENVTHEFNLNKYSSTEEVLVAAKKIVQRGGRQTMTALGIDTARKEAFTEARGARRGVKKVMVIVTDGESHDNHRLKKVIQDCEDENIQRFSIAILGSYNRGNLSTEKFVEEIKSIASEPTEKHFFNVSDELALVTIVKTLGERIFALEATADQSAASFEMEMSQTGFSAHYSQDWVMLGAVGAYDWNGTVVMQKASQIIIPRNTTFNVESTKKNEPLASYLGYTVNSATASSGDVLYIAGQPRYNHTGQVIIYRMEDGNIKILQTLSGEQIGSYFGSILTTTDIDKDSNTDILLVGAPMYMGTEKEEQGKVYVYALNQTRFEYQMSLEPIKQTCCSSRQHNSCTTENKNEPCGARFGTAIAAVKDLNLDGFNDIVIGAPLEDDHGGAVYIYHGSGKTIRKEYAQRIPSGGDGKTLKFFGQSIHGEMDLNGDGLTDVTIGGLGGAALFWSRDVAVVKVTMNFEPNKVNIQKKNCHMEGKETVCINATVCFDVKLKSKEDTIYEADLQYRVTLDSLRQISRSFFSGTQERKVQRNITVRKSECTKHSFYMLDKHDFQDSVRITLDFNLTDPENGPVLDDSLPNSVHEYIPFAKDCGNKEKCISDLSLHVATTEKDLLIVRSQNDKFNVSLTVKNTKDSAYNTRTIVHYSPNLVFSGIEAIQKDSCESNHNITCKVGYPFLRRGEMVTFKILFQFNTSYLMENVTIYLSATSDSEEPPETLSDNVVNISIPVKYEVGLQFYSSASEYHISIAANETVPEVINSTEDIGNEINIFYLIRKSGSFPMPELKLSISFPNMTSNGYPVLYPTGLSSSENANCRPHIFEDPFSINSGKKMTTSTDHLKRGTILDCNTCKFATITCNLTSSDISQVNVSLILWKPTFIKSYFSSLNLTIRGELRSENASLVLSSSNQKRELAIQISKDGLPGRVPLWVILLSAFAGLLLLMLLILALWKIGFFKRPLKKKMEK
T1 sequence (P05556 21-798): as the sequence (P05556 21-798) above
T3 sequence (P17301 30-1181): as the sequence (P17301 30-1181) above
T3 sequence (P05556 21-798): as the sequence (P05556 21-798) above

Usually inhibition stands for the change of the read-out against control, counted positive when it falls. For orientation: IC50 means the midpoint of a concentration-inhibition curve. As to `Nc1ccc(CNC(=O)NC[C@H](NC(=O)[C@@H]2CCCN2S(=O)(=O)c2ccccc2)C(=O)O)cc1` [Compound 30, 3-[3-(4-Amino-benzyl)-ureido]-2-[(1-benzenesulfonyl-pyrrolidine-2-carbonyl)-amino]-propionic acid], the inhibition at 3 µM at α1β1 turned out to be 22%. Moreover, the IC50 on α2β1 amounted to 102 nM; on α2β1 integrin (setting [1]), 23 nM; at α2β1 integrin (setting [2]) it was 23 nM; against α4β1, 1970 nM.

On to `Cc1cc(C)cc(S(=O)(=O)N2CCC[C@H]2C(=O)N[C@@H](CNC(=O)NCc2ccccc2)C(=O)O)c1` [Compound 31, 3-(3-Benzyl-ureido)-2-{[1-(3,5-dimethyl-benzenesulfonyl)-pyrrolidine-2-carbonyl]-amino}-propionic acid], for which the inhibition at 3 µM on α1β1 amounted to 26%. In addition, the IC50 was 89 nM on α2β1, 29 nM at α2β1 integrin (setting [1]), 29 nM at α2β1 integrin (setting [2]) and 740 nM at α4β1.

As for `O=C(NCc1ccccc1)NC[C@H](NC(=O)[C@@H]1CCCN1S(=O)(=O)c1cc(Cl)cc(Cl)c1)C(=O)O` [Compound 48, 3-(3-Benzyl-ureido)-2-{[1-(3,5-dichloro-benzenesulfonyl)-pyrrolidine-2-carbonyl]-amino}-propionic acid], the inhibition at 3 µM on α1β1 was 32%. Moreover, the IC50 at α2β1 came to 83 nM; on α2β1 integrin (setting [1]), 17 nM; at α2β1 integrin (setting [2]), 17 nM; at α4β1, 637 nM.

For the origin of these results see patent US8258159B2, “Inhibitors of the α2β1/GPIa-IIa integrin” (The Trustees Of The University Of Pennsylvania, priority 2005, dated 2012).
